Results taken from US12551461B2, “Compositions of triglycerides and uses thereof” (Ultragenyx Pharmaceutical Inc., priority 2013, dated 2026).
Entries after “also recorded” stand apart in the source; their conditions may differ.

What was measured:
mini-pigs = assay: Multiple dose study, vomiting and gastric distress observations
[1] = Storage stability of triheptanoin oil; assay type: physicochemical; conditions: stored at room temperature and protected from light
Source text: In some embodiments, the triheptanoin oil as described herein is a colorless oil of low viscosity and is odorless and tasteless. Triheptanoin oil as described herein is typically stored at room temperature and protected from light, and its stability can exceed 24 months under such conditions.

[2] = Multiple dose study, metabolite PK profiles Day 1 and Day 7
[3] = Single dose study, PK profile of triheptanoin and metabolites; assay type: in vivo; conditions: single oral gavage dose, Day 1, mini-pigs
Method: Single dose study of each arm with full pharmacokinetics (PK) profile through 48 hours post dose was performed to determined when metabolites return to baseline (one week washout between each arm) as well as if acute release of gastrin and cholesystokinin (CCK) hormones cause spasmodic stomach contractions. Blood samples were collected from each arm 0-90 min plus anytime outside this window if gastric distress observed.
More specifically, animals (n=3/sex) were fasted prior to dose and fed 4 hrs post dose. Blood samples for PK analysis of triheptanoin and metabolites were collected pre-dose through 48 hrs post dose.
In FIGS. 1-21, animals were administered a single oral gavage dose level of a triheptanoin oil sample (i.e., the oil) or exemplary solid samples comprising triheptanoin oil in accordance with the present invention. The two exemplary solid compositions comprise 1) 60%:20%:20% of triheptanoin oil:Cab-O-Sil:cellulose acetate (i.e., the Powder-ER); and 2) 80%:20% of triheptanoin oil:Cab-O-Sil (i.e., the Powder), respectively.

stability [1]: exceed 24 months
Propionylglycine levels ([2]; Day 1 and Day 7, mini-pigs): essentially zero
pimelic acid levels ([2]; Day 1 and Day 7, mini-pigs): highest amount of pimelic acid
conversion of triheptanoin to C7 ([2]; mini-pigs): All triheptanoin oil was converted to C7
triheptanoin levels ([2]; mini-pigs): no triheptanoin values
levels of ketones (C4-OH, C5-OH) [3]: comparable levels of ketones
SMILES: CCCCCCC(=O)OCC(COC(=O)CCCCCC)OC(=O)CCCCCC [triheptanoin oil, propane-1,2,3-triyl triheptanoate]
vomiting or gastric distress observed (mini-pigs): Day 1: Animal #6501 vomited ˜3 hours post dose; also recorded: Day 1: Animal #6516 vomited ˜3 hours post dose; also recorded: Day 5: Animal #6509 gastric distressed observed
